Assay results as given in patent US11505536B2, “Dihydroorotate dehydrogenase inhibitors” (Janssen Biotech, Inc., priority 2019, dated 2022).

Key:
[1] = tested on: MOLM-13 cells (human acute myeloid leukemia cells); assay: MOLM-13 Cellular Assay; type: cell-based; conditions: 72 hours exposure, cell viability by CellTiter-Glo
Outline: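 MOLM-13 AML cells, seeded at 5,000/well in RPMI 1640 with 10% FBS, were treated with compounds right after seeding for 72 h at 37 °C, 5% CO2. Viability read by CellTiter-Glo luminescence.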

human DHODH = human DHODH (Homo sapiens (Human), UniProt Q02127); assay: DHODH Enzymatic Assay; type: biochemical; conditions: purified human DHODH, DCIP absorbance, end-point mode; read-out: hDHODH IC50
human DHODH, sequence (Q02127 whole entry): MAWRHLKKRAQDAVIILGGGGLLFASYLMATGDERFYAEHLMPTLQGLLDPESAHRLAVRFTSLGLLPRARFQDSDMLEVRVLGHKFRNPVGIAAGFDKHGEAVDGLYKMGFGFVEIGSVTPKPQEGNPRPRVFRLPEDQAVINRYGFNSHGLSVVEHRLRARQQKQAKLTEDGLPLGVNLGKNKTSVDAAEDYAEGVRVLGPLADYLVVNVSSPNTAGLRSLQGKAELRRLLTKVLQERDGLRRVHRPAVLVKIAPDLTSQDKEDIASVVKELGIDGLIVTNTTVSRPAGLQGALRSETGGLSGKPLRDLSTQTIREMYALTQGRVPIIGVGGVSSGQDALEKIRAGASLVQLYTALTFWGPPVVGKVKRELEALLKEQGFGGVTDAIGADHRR
Outline: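 Purified human DHODH in […] HEPES pH 7.5, 150 mM NaCl, 0.5 mM EDTA, 0.1% Triton X-100; reaction started with substrate mix of 20 mM DHO, 5 mM CoQ6, 1 mM DCIP. End-point read as DCIP reduction (absorbance ~600 nm) after brequinar quench.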

| Structure (SMILES) | IC50 [1] | IC50 ([1]; Homo sapiens, MOLM-13, 72 h) | IC50 (human DHODH) |
| --- | --- | --- | --- |
| C=C(C)c1cn(-c2c(F)ccc(OC)c2Cl)c(=O)c2cc(F)c(-n3nc(CO)n(CC)c3=O)cc12 [Example 51, 2-(2-Chloro-6-fluoro-3-methoxyphenyl)-6-(4-ethyl-3-(hydroxymethyl)-5-oxo-4,5-dihydro-1H-1,2,4-triazol-1-yl)-7-fluoro-4-(prop-1-en-2-yl)isoquinolin-1(2H)-one] | 0.1 nM | ≤ 0.2 nM | 0.267 nM |
| C=C(C)c1cn(-c2c(F)cccc2Cl)c(=O)c2cc(F)c(-n3nc(CO)n(CC)c3=O)cc12 [Example 52, 2-(2-Chloro-6-fluorophenyl)-6-(4-ethyl-3-(hydroxymethyl)-5-oxo-4,5-dihydro-1H-1,2,4-triazol-1-yl)-7-fluoro-4-(prop-1-en-2-yl)isoquinolin-1(2H)-one] | 0.1 nM | ≤ 0.2 nM | 0.265 nM |
| CCn1c(CO)nn(-c2cc3c(C(C)C)nn(-c4ccccc4C)c(=O)c3cc2F)c1=O [Example 53, 6-(4-Ethyl-3-(hydroxymethyl)-5-oxo-4,5-dihydro-1H-1,2,4-triazol-1-yl)-7-fluoro-4-isopropyl-2-(o-tolyl)phthalazin-1(2H)-one] | – | 0.7 nM | 0.778 nM |
| CCn1c(CO)nn(-c2cc3c(C(C)C)nn(-c4c(F)cccc4Cl)c(=O)c3cc2F)c1=O [Example 54, 2-(2-Chloro-6-fluorophenyl)-6-(4-ethyl-3-(hydroxymethyl)-5-oxo-4,5-dihydro-1H-1,2,4-triazol-1-yl)-7-fluoro-4-isopropylphthalazin-1(2H)-one] | – | 0.4 nM | 0.433 nM |
| CCn1c(CO)nn(-c2cc3c(C4(C)CC4)cn(-c4c(F)cccc4Cl)c(=O)c3cc2F)c1=O [Example 58, 2-(2-Chloro-6-fluorophenyl)-6-(4-ethyl-3-(hydroxymethyl)-5-oxo-4,5-dihydro-1H-1,2,4-triazol-1-yl)-7-fluoro-4-(1-methylcyclopropyl)isoquinolin-1(2H)-one] | – | 4 nM | 8.81 nM |
| C=C(C)c1cn(-c2c(C)ccnc2OC)c(=O)c2cc(F)c(-n3nc(CO)n(CC)c3=O)cc12 [Example 59, 6-(4-Ethyl-3-(hydroxymethyl)-5-oxo-4,5-dihydro-1H-1,2,4-triazol-1-yl)-7-fluoro-2-(2-methoxy-4-methylpyridin-3-yl)-4-(prop-1-en-2-yl)isoquinolin-1(2H)-one] | – | 5 nM | 2.23 nM |
| C=C(C)c1cn(-c2c(C)n[nH]c2Cl)c(=O)c2cc(F)c(-n3nc(CO)n(CC)c3=O)cc12 [Example 60, 2-(5-Chloro-3-methyl-1H-pyrazol-4-yl)-6-(4-ethyl-3-(hydroxymethyl)-5-oxo-4,5-dihydro-1H-1,2,4-triazol-1-yl)-7-fluoro-4-(prop-1-en-2-yl)isoquinolin-1(2H)-one] | – | 4 nM | 0.286 nM |
| CCn1c(CO)nn(-c2cc3c(C(C)C)cn(-c4c(C)cnc(OC)c4Cl)c(=O)c3cc2F)c1=O [Example 61, 2-(3-Chloro-2-methoxy-5-methylpyridin-4-yl)-6-(4-ethyl-3-(hydroxymethyl)-5-oxo-4,5-dihydro-1H-1,2,4-triazol-1-yl)-7-fluoro-4-isopropylisoquinolin-1(2H)-one] | – | 2 nM | 0.617 nM |
| C=C(C)c1cn(-c2c(C)cnc(OC)c2Cl)c(=O)c2cc(F)c(-n3nc(CO)n(CC)c3=O)cc12 [Example 62, 2-(3-Chloro-2-methoxy-5-methylpyridin-4-yl)-6-(4-ethyl-3-(hydroxymethyl)-5-oxo-4,5-dihydro-1H-1,2,4-triazol-1-yl)-7-fluoro-4-(prop-1-en-2-yl)isoquinolin-1(2H)-one] | – | 2 nM | 0.836 nM |
| CCn1c(CO)nn(-c2cc3c(C(C)C)cn(-c4cc(OC)ccc4F)c(=O)c3cc2F)c1=O [Example 63, 6-(4-Ethyl-3-(hydroxymethyl)-5-oxo-4,5-dihydro-1H-1,2,4-triazol-1-yl)-7-fluoro-2-(2-fluoro-5-methoxyphenyl)-4-isopropylisoquinolin-1(2H)-one] | – | 2 nM | 2.76 nM |
| CCn1c(CO)nn(-c2cc3c(C(C)C)cn(-c4ccc(F)cc4C)c(=O)c3cc2F)c1=O [Example 64, 6-(4-Ethyl-3-(hydroxymethyl)-5-oxo-4,5-dihydro-1H-1,2,4-triazol-1-yl)-7-fluoro-2-(4-fluoro-2-methylphenyl)-4-isopropylisoquinolin-1(2H)-one] | – | 0.5 nM | 0.459 nM |
| C=C(C)c1cn(-c2cccc(OCCO)c2Cl)c(=O)c2cc(F)c(-n3nc(CO)n(CC)c3=O)cc12 [Example 65, 2-(2-Chloro-3-(2-hydroxyethoxy)phenyl)-6-(4-ethyl-3-(hydroxymethyl)-5-oxo-4,5-dihydro-1H-1,2,4-triazol-1-yl)-7-fluoro-4-(prop-1-en-2-yl)isoquinolin-1(2H)-one] | – | 20 nM | 1.65 nM |
| C=C(C)c1cn(-c2ccccc2F)c(=O)c2cc(F)c(-n3nc(CO)n(CC)c3=O)cc12 [Example 66, 6-(4-Ethyl-3-(hydroxymethyl)-5-oxo-4,5-dihydro-1H-1,2,4-triazol-1-yl)-7-fluoro-2-(2-fluorophenyl)-4-(prop-1-en-2-yl)isoquinolin-1(2H)-one] | – | 0.3 nM | < 0.169 nM |
| CCn1c(CO)nn(-c2cc3c(C(C)C)cn(-c4cc(F)ccc4C)c(=O)c3cc2F)c1=O [Example 67, 6-(4-Ethyl-3-(hydroxymethyl)-5-oxo-4,5-dihydro-1H-1,2,4-triazol-1-yl)-7-fluoro-2-(5-fluoro-2-methylphenyl)-4-isopropylisoquinolin-1(2H)-one] | – | 0.9 nM | 0.605 nM |
| CCn1c(CO)nn(-c2cc3c(C(C)C)cn(-c4cc(F)ccc4F)c(=O)c3cc2F)c1=O [Example 68, 2-(2,5-Difluorophenyl)-6-(4-ethyl-3-(hydroxymethyl)-5-oxo-4,5-dihydro-1H-1,2,4-triazol-1-yl)-7-fluoro-4-isopropylisoquinolin-1(2H)-one] | – | 3 nM | 2.2 nM |
| CCn1c(CO)nn(-c2cc3c(C(C)C)cn(-c4c(C)cccc4F)c(=O)c3cc2F)c1=O [Example 69, 6-(4-Ethyl-3-(hydroxymethyl)-5-oxo-4,5-dihydro-1H-1,2,4-triazol-1-yl)-7-fluoro-2-(2-fluoro-6-methylphenyl)-4-isopropylisoquinolin-1(2H)-one] | – | 0.7 nM | 0.435 nM |
| C=C(C)c1cn(-c2cccc(OC)c2Cl)c(=O)c2cc(F)c(-n3nc(CO)n(CC)c3=O)cc12 [Example 70, 2-(2-Chloro-3-methoxyphenyl)-6-(4-ethyl-3-(hydroxymethyl)-5-oxo-4,5-dihydro-1H-1,2,4-triazol-1-yl)-7-fluoro-4-(prop-1-en-2-yl)isoquinolin-1(2H)-one] | – | 0.4 nM | 0.24 nM |
| C=C(C)c1cn(-c2c(C)cnc(OC)c2C)c(=O)c2cc(F)c(-n3nc(CO)n(CC)c3=O)cc12 [Example 71, 6-(4-Ethyl-3-(hydroxymethyl)-5-oxo-4,5-dihydro-1H-1,2,4-triazol-1-yl)-7-fluoro-2-(2-methoxy-3,5-dimethylpyridin-4-yl)-4-(prop-1-en-2-yl)isoquinolin-1(2H)-one] | – | 10 nM | 2.02 nM |
| C=C(C)c1cn(-c2cc(F)ccc2F)c(=O)c2cc(F)c(-n3nc(CO)n(CC)c3=O)cc12 [Example 72, 2-(2,5-Difluorophenyl)-6-(4-ethyl-3-(hydroxymethyl)-5-oxo-4,5-dihydro-1H-1,2,4-triazol-1-yl)-7-fluoro-4-(prop-1-en-2-yl)isoquinolin-1(2H)-one] | – | 2 nM | 0.946 nM |
| C=C(C)c1cn(-c2c(C)cccc2F)c(=O)c2cc(F)c(-n3nc(CO)n(CC)c3=O)cc12 [Example 73, 6-(4-Ethyl-3-(hydroxymethyl)-5-oxo-4,5-dihydro-1H-1,2,4-triazol-1-yl)-7-fluoro-2-(2-fluoro-6-methylphenyl)-4-(prop-1-en-2-yl)isoquinolin-1(2H)-one] | – | 0.7 nM | 0.562 nM |
| CCn1c(CO)nn(-c2cc3c(C(C)C)cn(-c4cccc(F)c4C)c(=O)c3cc2F)c1=O [Example 74, 6-(4-Ethyl-3-(hydroxymethyl)-5-oxo-4,5-dihydro-1H-1,2,4-triazol-1-yl)-7-fluoro-2-(3-fluoro-2-methylphenyl)-4-isopropylisoquinolin-1(2H)-one] | – | 7 nM | 2.24 nM |
| CCn1c(CO)nn(-c2cc3c(C(C)C)cn(-c4cc(C)ccc4C)c(=O)c3cc2F)c1=O [Example 75, 2-(2,5-Dimethylphenyl)-6-(4-ethyl-3-(hydroxymethyl)-5-oxo-4,5-dihydro-1H-1,2,4-triazol-1-yl)-7-fluoro-4-isopropylisoquinolin-1(2H)-one] | – | 1 nM | 0.58 nM |
| C=C(C)c1cn(-c2ccc(F)cc2C)c(=O)c2cc(F)c(-n3nc(CO)n(CC)c3=O)cc12 [Example 76, 6-(4-Ethyl-3-(hydroxymethyl)-5-oxo-4,5-dihydro-1H-1,2,4-triazol-1-yl)-7-fluoro-2-(4-fluoro-2-methylphenyl)-4-(prop-1-en-2-yl)isoquinolin-1(2H)-one] | – | 4 nM | 1.5 nM |
| CCn1c(CO)nn(-c2cc3c(C(C)C)cn(-c4ccccc4F)c(=O)c3cc2F)c1=O [Example 77, 6-(4-Ethyl-3-(hydroxymethyl)-5-oxo-4,5-dihydro-1H-1,2,4-triazol-1-yl)-7-fluoro-2-(2-fluorophenyl)-4-isopropylisoquinolin-1(2H)-one] | – | 3 nM | 1.86 nM |
| CCn1c(CO)nn(-c2cc3c(C(C)C)cn(-c4c(C)cnc(OC)c4C)c(=O)c3cc2F)c1=O [Example 78, 6-(4-Ethyl-3-(hydroxymethyl)-5-oxo-4,5-dihydro-1H-1,2,4-triazol-1-yl)-7-fluoro-4-isopropyl-2-(2-methoxy-3,5-dimethylpyridin-4-yl)isoquinolin-1(2H)-one] | – | 20 nM | 2.34 nM |
